Test system: 2nd order mesenteric resistance arteries of SHR
Experiment: Reactivity of isolated arteries: dilator effect during contraction induced by 40 mmol/L K+
Set-up: species or system Spontaneously Hypertensive Rats (SHR)
Protocol: Segments of 2nd order mesenteric artery side branches were isolated from 14 weeks old male Spontaneously Hypertensive Rats (SHR). Two stainless-steel wires (diameter 40 μm) were inserted in the lumen of the arterial segments, which were then mounted in organ chambers between an isometric force transducer and a displacement device (Danish Myotechnology by J. P. Trading, Denmark). The organ chambers were filled with Krebs-Ringer bicarbonate solution which was maintained at 37° C. and continuously aerated with 95% O2 and 5% CO2. Before the actual experiments started, arterial segments were stretched to their individual optimal lumen diameter for mechanical performance, i.e. the diameter at which maximal contractile responses to noradrenaline (10 μmol/L) were obtained. In each experiment four second order mesenteric resistance arterial segments from one animal were mounted in individual organ chambers and studied in parallel. At the start of the experiments, all four arterial preparations were incubated during 20 min with capsaicin (1 μmol/L) to persistently desensitize sensory-motor nerves and to obtain a stable and considerable contractile response to potassium (K^+, 40 mmol/L). During all the experiments superoxide dismutase (SOD, 5 U/ml) was present, to preserve stability of the metabolites. We tested the effects of the 35 different phenolic compounds using a Plackett-Burman screening design. The experiment consisted of 5 separate saturated 8 run Plackett-burman designs. […] In this way, the effects of different exposure times to the mixtures (7, 30 and 90 min) on K+-induced contraction, could be evaluated. […] Effects of increasing concentrations of the solvent and of the mixes (0.1 to 100 umol/L) during contractile responses to 40 mmol/L K+, were calculated as % change of the level of pre-contraction. […] Responses to acetylcholine and Na-nitroprusside were analysed in terms of sensitivity (pD2=−log (M) EC50) and maximal effect (Emax) by least square sigmoidal curve fitting of individual concentration-response curves (Graphpad Prism 1.00, San Diego, Calif., USA). […]

EC50 (Rattus norvegicus, isolated mesenteric resistance arteries of SHR, pre-contracted with 40 mmol/L K+, deduced by comparing mixtures (Plackett-Burman design), corrected for solvent, read-out: EC50 of dilation of the arteries): 3000 nM
SMILES: O=c1c(O)c(-c2ccc(O)cc2)oc2cc(O)cc(O)c12 [kaempferol, 3,5,7-trihydroxy-2-(4-hydroxyphenyl)-4H-1-benzopyran-4-one]
influence on the dilation of the arteries (at a low concentration, isolated SHR mesenteric arteries, comparison of different mixtures): significant influence on the dilation of the arteries | concentration at which the maximum dilatation was obtained (isolated mesenteric resistance arteries of SHR, pre-contracted with 40 mmol/L K+, range tested 0.1-100 umol/L): 100 µM

From US20090010993A1, “Composition comprising polyphenol” (Conopco, Inc. d/b/a Unilever, priority 2007, published 2009)
